IC50 data for two compounds are collected here from BindingDB's records for patent US10202390 (Bristol-Myers Squibb Co., 2019).

The target of the assay is T1, Interleukin-1 receptor-associated kinase 4 (Homo sapiens, UniProt Q9NWZ3).
T1 sequence (Q9NWZ3 whole entry): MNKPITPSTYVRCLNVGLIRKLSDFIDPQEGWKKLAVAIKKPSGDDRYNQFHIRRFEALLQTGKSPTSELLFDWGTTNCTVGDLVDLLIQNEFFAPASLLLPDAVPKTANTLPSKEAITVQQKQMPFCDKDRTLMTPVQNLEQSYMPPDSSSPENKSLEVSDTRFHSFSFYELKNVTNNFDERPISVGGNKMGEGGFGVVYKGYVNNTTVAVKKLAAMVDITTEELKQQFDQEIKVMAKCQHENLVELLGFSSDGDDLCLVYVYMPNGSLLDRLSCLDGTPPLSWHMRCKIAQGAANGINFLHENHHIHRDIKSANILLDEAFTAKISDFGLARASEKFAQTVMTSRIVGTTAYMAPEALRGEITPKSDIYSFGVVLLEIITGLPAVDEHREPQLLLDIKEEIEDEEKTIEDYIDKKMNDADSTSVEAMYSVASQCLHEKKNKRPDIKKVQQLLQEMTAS
Put plainly: Not found.
Excerpt: Not found

Compound `CC(C)Nc1cc(-c2cnc3cc(Cl)cnn23)ncc1-c1cnn(C2CCOCC2)c1` [US10202390, Example 2] showed a half-maximal inhibitory concentration (IC50) of 63 nM.
`CC(C)(O)CCc1cn(-c2cnc(-c3cnn4cc(C#N)cnc34)cc2NC2COC2)nn1` [US10202390, Example 26]: the IC50 came to 10 nM.
